Experiments:
[1] = test system: osmotolerant microorganisms; test: pH drop of syrup with 60% dry substances during storage at 22° C.; type: cell-based; conditions: 350 ppm
Description: A further pH drop is to be avoided or at least delayed by the addition of an agent. The juice is supplemented with rosin acids at a concentration of 200 ppm in the form of a 20% sodium salt solution.

thermophilic bacteria = test: pH drop (acid formation) of thermophilic bacteria culture: liquid nutrient medium inoculated with crude juice, 65° C.; type: cell-based, thermophilic bacteria from sugar beet crude juice; conditions: Example 9; for pH / ΔpH/h: 0.2 ml solution each added at pH 6.30, 6.28, 6.26, 6.24
Procedure: A liquid nutrient medium as used in microbiology and including 10 g bactopepton, 5 g meat extract, 5 g yeast extract, 1 g glucose, 1 g K2HPO4, 0.3 g KNO3, 0.1 g MgSO4*7H2O and 0.01 g FeSO4*7H2O per liter distilled water, is sterilized in the usual manner for 20 minutes at 120° C. and inoculated with 20 ml crude juice from large-scale sugar beet extraction in a 500 ml vessel heated at 65° C., with the pH being recorded on a recorder. […]
A liquid nutrient medium as used in Example 1 is inoculated with 40 ml crude juice from a sugar factory per liter, stirred at 65° C. and the pH drop is followed. A solution of 15 mg pure neoabietic acid (99%) per 1.5 ml ethanol is prepared.

With `C=O` [HCHO, formaldehyde] the ph drop ([1]; Observation time 0 days) was 0, the ph value ([1]; Observation time 0 days) was 8.44 and the ph drop ([1]; Observation time 1 days) was 0.39. For the same compound, the ph value ([1]; Observation time 1 days) was 8.05, the ph drop ([1]; Observation time 2 days) was 0.48 and the ph value ([1]; Observation time 2 days) was 7.96. It also gave a ph drop ([1]; Observation time 5 days) of 0.67 and a ph value ([1]; Observation time 5 days) of 7.77.
For `CC(C)=C1C=C2CCC3C(C)(C(=O)O)CCCC3(C)C2CC1` (stereo not drawn) [neoabietic acid], the “concentration at which the pH drop is stopped” value (thermophilic bacteria; ethanol solution, four additions of 0.2 ml, 40 ml crude juice per liter, 65° C.) was 8 mg per liter, the pH (thermophilic bacteria; Time 0 h) was 6.90 and the pH (thermophilic bacteria; Time 1 h) was 6.90. For the same compound, the ΔpH/h (thermophilic bacteria; Time 1 h) was 0.00 pH/h, the pH (thermophilic bacteria; Time 2 h) was 6.89 and the ΔpH/h (thermophilic bacteria; Time 2 h) was 0.01 pH/h. The pH (thermophilic bacteria; Time 3 h) was 6.87, the ΔpH/h (thermophilic bacteria; Time 3 h) was 0.02 pH/h and the pH (thermophilic bacteria; Time 3.5 h) was 6.86. The ΔpH/h (thermophilic bacteria; Time 3.5 h) was 0.02 pH/h, the pH (thermophilic bacteria; Time 4 h) was 6.85 and the ΔpH/h (thermophilic bacteria; Time 4 h) was 0.02 pH/h. It also gave a pH (thermophilic bacteria; Time 4.5 h) of 6.82, a ΔpH/h (thermophilic bacteria; Time 4.5 h) of 0.06 pH/h and a pH (thermophilic bacteria; Time 5 h) of 6.72. It also gave a ΔpH/h (thermophilic bacteria; Time 5 h) of 0.20 pH/h, a pH (thermophilic bacteria; Time 5.5 h) of 6.54 and a ΔpH/h (thermophilic bacteria; Time 5.5 h) of 0.36 pH/h. It also gave a pH (thermophilic bacteria; Time 5.8 h) of 6.30, a ΔpH/h (thermophilic bacteria; Time 5.8 h) of 0.80 pH/h and a pH (thermophilic bacteria; Time 6 h) of 6.24. The ΔpH/h (thermophilic bacteria; Time 6 h) was 0.30 pH/h, the pH (thermophilic bacteria; Time 6.5 h) was 6.24 and the ΔpH/h (thermophilic bacteria; Time 6.5 h) was 0.00 pH/h. For the same compound, the pH (thermophilic bacteria; Time 7 h) was 6.25, the ΔpH/h (thermophilic bacteria; Time 7 h) was −0.02 pH/h and the pH (thermophilic bacteria; Time 8 h) was 6.25. The ΔpH/h (thermophilic bacteria; Time 8 h) was 0.00 pH/h.

From US6770147B2, “METHOD FOR THE PRODUCTION OF SUGAR OR SUGAR-CONTAINING PRODUCTS FROM SUGAR-CONTAINING VEGETABLE RAW MATERIALS, SUGAR AND SUGAR-CONTAINING PRODUCTS MADE BY THE METHOD, AND EXTRACTION SOLUTION FOR USE IN THE METHOD” (Zuckerforschung Tulln Gesellschaft m.b.H., priority 2000, dated 2004)
